What was measured:
infarct volume = experiment: Dose optimization of combination of simvastatin and L-arginine, infarct volume in mice; assay type: in vivo; settings: mice injected with varying levels of simvastatin and L-arginine; predicted by statistical analysis
[1] = tested on: endothelium-dependent vasodilation; experiment: Endothelium-dependent vasodilation by brachial artery ultrasound in subjects with elevated ADMA; assay type: in vivo, human; settings: subjects in whom eNOS is blocked by elevated ADMA levels
eNOS = eNOS function in cultured human aortic endothelial cells (conversion of labeled L-arginine to L-citrulline); assay type: cell-based; settings: HAEC incubated with 1.0 or 0.3 μM simvastatin for 24 hours; relative to untreated cells
Protocol: Human aortic endothelial cells (HAEC-c) (BioWhittaker, Walkersville, Md.) were cultured according to the following procedure. Endothelial cells in EBM-2/EGM-2 media (BioWhittaker) were grown to about 80% to about 90% confluence. Each flask of cells was washed with 5 ml media followed by the addition of 15 ml media to each cell. Cells were detached with a cell scraper and transferred to a 50 ml conical tube. Cells were pelleted by centrifugation at 800 RMP for 8 min. The supernatant was discarded and the pellet was washed with cold 1× PBS.
The cells were homogenized as follows. The pellet was loosened and 400 μl of 10× homogenization buffer (250 mM Tris at pH 7.4, 10 mM EDTA and 10 mM EGTA) was added. The sample was homogenized using a 27 G needle about 10 times. The homogenate was transferred to a 1.5 ml epindorph tube. The pellet was subsequently resuspended in 30 to 45 μl of 1× homogenization buffer. […]
Following incubation, about 400 μl of stop equilibration buffer (50 mM NaAcetate at pH 5.5) was added to each sample and control. […] Results are calculated, in part, by subtracting background (buffer control) from each sample. The sample values are expressed as counts per minute or as a percent of untreated cells.
Relative eNOS function was measured by the conversion of labeled-L-arginine to L-citrulline and expressed as a percent of citrulline produced by the non-treated cells. […]

Compound | optimal range of the combination (infarct volume) [mg/kg] | effect on endothelial function [1] | level of eNOS function (eNOS)
N=C(N)NCCC[C@H](N)C(=O)O [L-arginine] | 20 to 25 |  | 
CCC(C)(C)C(=O)O[C@H]1C[C@@H](C)C=C2C=C[C@H](C)[C@H](CC[C@@H]3C[C@@H](O)CC(=O)O3)[C@H]21 [simvastatin w/o L-arginine SR, simvastatin] |  | does not enhance | increases
